Measured values published in PMC4871480, “A Miniaturized Screen of a Schistosoma mansoni Serotonergic G Protein-Coupled Receptor Identifies Novel Classes of Parasite-Selective Inhibitors” (PLoS Pathogens, 2016).
Entries after “also recorded” stand apart in the source; their conditions may differ. Like-named read-outs stand apart in the source and are kept apart here.

Assays:
adult schistosomes = assay: Adult schistosome mobility assay; type: in vivo, Schistosoma mansoni
Experimental: Female Swiss Webster mice exposed to Schistosoma mansoni cerceria (Strain PR-1) at 5–7 weeks old were obtained from BEI Resources (Cat. number NR-34792) and sacrificed 6–8 weeks post-infection. Mature S. mansoni were harvested from the mesenteric vasculature by portal perfusion. Briefly, mice were anesthetized in a CO2 chamber and sacrificed by cervical dislocation. Mice were perfused with sodium citrate (25mM) and adult schistosomes were harvested from the mesenteric veins. Schistosomes were washed in RPMI media containing penicillin (1000 units/mL), streptomycin (1000 μg/mL) and 25mM HEPES, then transferred to RPMI media supplemented with 2mM glutamine and 5% heat inactivated FBS. Worms were incubated overnight at 37°C, 5% CO2 before conducting assays. Recordings of adult schistosome movement were captured using a Zeiss Discovery v20 stereomicroscope and a QiCAM 12-bit cooled color CCD camera. Videos were acquired at a rate of four frames per second for one minute. Recordings of female worms were acquired at 7.6x magnification, 30 mm field of view and recordings of male worms were acquired at a 5.1x magnification, 45 mm field of view. Analysis was performed in ImageJ as described previously. Briefly, image (.tiff) stacks of each recording were imported and processed by converting to binary format so that pixel measurements represent area of the worms’ bodies. Mobility was quantified by measuring the difference in pixels resulting from subtracting the value of one frame (n) from those of the next frame in the sequence (n+1). This difference was expressed as a percentage of the pixels in the initial frame (n), providing a measurement of the worms’ movement over a period of 0.25 seconds. This calculation was performed for each frame in the video, and the results were averaged over the length of the recording. Values reported represent the mean (±) standard error of at least three independent experiments. Animal work was carried out with the oversight and approval of the Laboratory Animal Resources facility at the Iowa State University College of Veterinary Medicine.

Sm.5HTRL = Sm.5HTRL (Schistosoma mansoni, UniProt A0A173FEI8); assay: GloSensor cAMP assay in HEK293 cells expressing Sm.5HTRL; type: cell-based; details: for inhibition of 5-HT evoked cAMP generation through Sm.5HTRL: antagonists 10μM, 5-HT EC80 dose
Experimental: (§1) HEK293 cells (ATCC CRL-1573.3) were cultured in DMEM supplemented with 10% fetal bovine serum (FBS), penicillin (100 units/ml), streptomycin (100 μg/ml), and L-glutamine (290 μg/ml). Cells were transiently transfected (ViaFect, Promega) as per the manufacturer’s protocol at a density of 2x10^6 cells per T-25 cell-culture flask. Cells were transfected with plasmids encoding GloSensor (Promega) and either Sm.5HTR (Smp_126730, GenBank accession number KF444051.1) or Sm.5HTRL (KX150867), bothGPCRs being codon optimized for mammalian expression, or Hs.5HT7a (GenBank accession number NM_000872.4, R&D Systems) subcloned into pCS2(-). Cell culture reagents were from Invitrogen. Epitope tagged constructs were used to verify expression, and untagged constructs used for all luminescence assays.
(§2) For assays performed on adherent cells, HEK-293 cells were transferred one day post transfection to 96 well, solid white plates (Corning, cat # 3917) coated with 0.01% poly-L-lysine (Sigma Aldrich) at a density of 5 x 10^4 cells / well in DMEM supplemented with 1% dialyzed FBS (Gibco). After overnight culture (37°C/5% CO2), media was decanted and replaced with 100μL / well HBSS supplemented with 0.1% BSA, 20mM HEPES (pH 7.4) and GloSensor reagent. Plates were allowed to equilibrate at room temperature for two hours prior to performing luminescence assays (GloMax-Multi Detection System plate reader, Promega). Conditions for individual assays were described as per figure legends. The standard assay to detect changes in cAMP utilized the F22 sensor in media supplemented with IBMX (200μM). Ligands were added at a concentration of 20x per well for experiments (i.e. 5μl of drug solution added to 100μl of cells). […] For the resazurin reduction assay for cellular viability, cells were incubated with resazurin (final concentration, 10μM) and tested ligands with fluorescence measurements (560 nm excitation/590 nm emission) made at 1.5hr intervals.

[1] = tested on: S. mansoni schistosomules; assay: Schistosomule contractility assay; type: in vivo, Schistosoma mansoni
Experimental: Biomphalaria glabrata (M-line) snails exposed to Schistosoma mansoni miracidia (Strain PR-1) were obtained from BEI Resources (Cat. number NR-21961) and cercaria were shed following exposure to light (1.5 hours). Cercaria were manually transformed into schistosomula by vortexing (3 x 45 seconds, each separated by 3 minutes on ice) and tails were removed by gradient centrifugation (24ml Percoll, 4ml 10X EMEM, 1.5ml penicillin-streptomycin, 1ml of 1M HEPES in 0.85% NaCl, 9.5ml distilled water) at 500g/15min at 4°C. Supernatant containing tails was discarded, and schistosomules were resuspended in Basch media and incubated (37°C, 5% CO2) overnight before conducting mobility assays. For contractility experiments, somules were incubated in 5-HT free Basch media to resolve a basal contractility rate. […] Schistosomules were incubated in 24 well plates (~200 schistosomules / 0.5mL media per well) for 30 minutes (37°C/5% CO2) prior to acquiring videos of schistosome movement (1 minute recordings / well) using a Nikon Coolpix 5700 camera affixed to a Nikon Eclipse TS100 microscope (10x objective). The WrmTrck plugin for ImageJ was used to quantify worm mobility. Briefly, the major axis of each schistosomule body length was extracted from the raw output of WrmTrck and an average length was determined for the duration of the recording. Contractions were quantified by determining the number of episodes during which the worm body length deviated from the average by over 20%. S. mansoni protocols were approved by the Iowa State University Institutional Biosafety Committee.

Sm.5HTR [2] = target: T1, Sm.5HTR (Schistosoma mansoni, UniProt G4V5G4); assay: cell-based; type: cell-based; details: for ligand type at Sm.5HTR: Fig 5F; for agonist efficacy at Sm.5HTR: dose response, Fig 5A; for activity at Sm.5HTR: antagonist/modulator screening; for GPCR inhibition profile compared with rotundine: Sm.5HTR vs Hs.5HT7R, Fig F in S1 Text; for Emax: HEK293, read-out: 5-HT Emax; for potency (IC50) at Sm.5HTR: Fig 7 quadrant
Experimental: as §1, §2

Hs.5HT7R = target: T2, Hs.5HT7R (Homo sapiens, UniProt P34969); assay: GloSensor cAMP assay in HEK293 cells expressing Hs.5HT7R; type: cell-based; details: for potency (IC50) at Hs.5HT7R: Fig 7 quadrant
T2 construct: host or cells: HEK293 (ATCC CRL-1573.3), transient transfection, pCS2(-) vector
Experimental: as §1, §2

Sm.5HTR [3] = target: T1, Sm.5HTR; assay: Antagonist washout (inactivating antagonist) GloSensor assay on suspension cells; type: cell-based; details: for inhibition of Sm.5HTR after antagonist wash-out: 10μM for 30 mins, washout, 5-HT response 1hr later
Experimental: To test putative irreversible antagonists, assays on suspension cells were performed one day post transfection. […] Compounds were added at 10 μM, and after 30 minute incubation at room temperature cells were centrifuged (300 RCF, 5 minutes) and resuspended in fresh media. This wash step was repeated, and cells were resuspended in HBSS supplemented with 0.1% BSA, 20mM HEPES and GloSensor reagent. Cells were gently rotated to prevent aggregation and settling over the course of the two hour equilibration period, after which time they were transferred to 96 well plates at a density of 8 x 10^4 cells / 100μL per well and assays described for adherent cells.

[4] = IC50 (Hs.5HT7R) / IC50 (Sm.5HTR)
[5] = EC50 (agonist, cAMP generation), F22 sensor with IBMX

T1 sequence (G4V5G4 entry or part of it): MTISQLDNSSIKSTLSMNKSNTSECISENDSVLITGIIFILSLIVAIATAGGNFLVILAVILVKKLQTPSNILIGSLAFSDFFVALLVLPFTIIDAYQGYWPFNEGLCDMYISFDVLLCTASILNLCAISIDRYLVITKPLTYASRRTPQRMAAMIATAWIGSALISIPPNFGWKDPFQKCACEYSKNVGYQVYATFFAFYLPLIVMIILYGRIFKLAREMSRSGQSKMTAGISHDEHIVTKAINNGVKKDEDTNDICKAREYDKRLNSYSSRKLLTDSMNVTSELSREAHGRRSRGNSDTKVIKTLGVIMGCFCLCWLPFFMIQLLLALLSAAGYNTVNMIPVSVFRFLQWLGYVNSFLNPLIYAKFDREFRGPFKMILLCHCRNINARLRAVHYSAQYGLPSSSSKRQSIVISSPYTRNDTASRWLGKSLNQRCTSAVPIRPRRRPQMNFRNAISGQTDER
T2 sequence (P34969 1-445 isoform P34969-2): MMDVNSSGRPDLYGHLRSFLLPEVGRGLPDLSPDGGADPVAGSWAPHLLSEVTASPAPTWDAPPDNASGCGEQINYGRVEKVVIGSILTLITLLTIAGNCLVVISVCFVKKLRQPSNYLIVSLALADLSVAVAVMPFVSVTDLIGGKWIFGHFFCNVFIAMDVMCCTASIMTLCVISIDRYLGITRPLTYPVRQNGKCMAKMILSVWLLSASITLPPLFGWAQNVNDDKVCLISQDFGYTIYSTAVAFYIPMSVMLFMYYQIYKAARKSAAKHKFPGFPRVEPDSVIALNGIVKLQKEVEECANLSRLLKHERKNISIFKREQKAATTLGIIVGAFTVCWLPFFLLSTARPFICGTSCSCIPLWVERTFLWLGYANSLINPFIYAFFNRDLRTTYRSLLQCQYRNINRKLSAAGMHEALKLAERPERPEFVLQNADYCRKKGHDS
Sequence of Sm.5HTRL (A0A173FEI8 entry or part of it): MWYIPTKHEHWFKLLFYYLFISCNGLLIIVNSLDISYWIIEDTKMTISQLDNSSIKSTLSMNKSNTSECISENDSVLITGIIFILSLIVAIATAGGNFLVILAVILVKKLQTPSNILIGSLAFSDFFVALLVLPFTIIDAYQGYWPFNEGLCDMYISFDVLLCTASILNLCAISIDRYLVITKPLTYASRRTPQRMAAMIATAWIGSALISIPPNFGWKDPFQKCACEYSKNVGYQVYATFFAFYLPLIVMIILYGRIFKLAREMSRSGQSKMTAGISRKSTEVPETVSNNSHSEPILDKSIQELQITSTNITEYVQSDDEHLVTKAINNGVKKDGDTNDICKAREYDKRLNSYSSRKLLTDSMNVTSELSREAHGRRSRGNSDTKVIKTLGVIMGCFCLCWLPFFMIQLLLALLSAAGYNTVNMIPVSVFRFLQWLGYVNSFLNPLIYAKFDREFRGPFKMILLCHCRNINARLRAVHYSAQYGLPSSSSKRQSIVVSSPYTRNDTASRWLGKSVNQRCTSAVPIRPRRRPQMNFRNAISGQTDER

NCCc1c[nH]c2ccc(O)cc12 [5-HT, Serotonin]
effect on movement of unpaired male and female worms (adult schistosomes; 5-HT application): significantly increased the movement
EC50 (Sm.5HTRL; F22 sensor with IBMX, read-out: EC50 (cAMP generation, Sm.5HTRL)): 0.2 ± 0.03 µM
EC80 (Sm.5HTRL; HEK293): 0.8 µM
greater sensitivity of Sm.5HTRL vs Sm.5HTR (Sm.5HTRL; ratio of 5-HT EC50 values): ~ 10 fold
effect on basal contractile rate of schistosomules ([1]; exogenous addition, dose-dependent): increase in the basal contractile rate

CCN(CC)C(=O)[C@@H]1C=C2c3cccc4[nH]cc(c34)C[C@H]2N(C)C1 [LSD, lysergic acid diethylamide]
ligand type at Sm.5HTR (Sm.5HTR [2]): Antagonist
Kb (Sm.5HTR [2]; KB (affinity constant, Schild regression), right-shift of 5-HT dose-response): 0.629 µM
inhibition of 5-HT evoked cAMP generation (Sm.5HTR [2]; at higher concentrations (>10μM)): almost complete inhibition
agonist efficacy at Sm.5HTR (Sm.5HTR [2]): no efficacy
Kb (Sm.5HTR [2]; pKB ± S.E.M, Schild regression): 0.631 µM

O=C(C1CCCCC1)N1CC(=O)N2CCc3ccccc3C2C1 (stereo not shown) [Praziquantel, praziquantel]
ligand type at Sm.5HTR (Sm.5HTR [2]): Inactive
activity at Sm.5HTR (Sm.5HTR [2]; listed as PZQ): did not reveal any modulation of receptor activity; also recorded: did not yield any effect

CC1CCN(CC[C@H]2CCCN2S(=O)(=O)c2cccc(O)c2)CC1 [SB269970]
activity at Sm.5HTR (Sm.5HTR [2]): modest effects
activity at Sm.5HTR (Sm.5HTR [2]; listed as SB 269970): completely lacked activity

O=S(=O)(c1ccccc1)c1cnc2c(N3CCNCC3)cccc2c1 [SB742457]
inhibition of Hs.5HT7R (Hs.5HT7R; Fig 4): potent inhibitors
activity at Sm.5HTR (Sm.5HTR [2]): completely lacked activity; also recorded: modest effects

COc1cc2nc(N(C)CCCNC(=O)C3CCCO3)nc(N)c2cc1OC (stereo not shown) [alfuzosin]
selectivity for Sm.5HTR over Hs.5HT7R (Sm.5HTR [2]; [4]): clear selectivity for Sm.5HTR; also recorded: clear bias toward Sm.5HTR
inhibition of 5-HT evoked cAMP generation through Sm.5HTRL (Sm.5HTRL): inhibited 5-HT evoked cAMP generation

CCN1CCCC1CNC(=O)c1cc(S(=O)(=O)CC)c(N)cc1OC (stereo not shown) [amisulpride]
activity at Sm.5HTR (Sm.5HTR [2]): modest effects

CNCC[C@@H](Oc1ccccc1C)c1ccccc1 [atomoxetine]
selectivity for Sm.5HTR over Hs.5HT7R (Sm.5HTR [2]): clear selectivity for Sm.5HTR; also recorded: preferential selectivity toward Sm.5HTR
inhibition of 5-HT evoked cAMP generation through Sm.5HTRL (Sm.5HTRL): inhibited 5-HT evoked cAMP generation

COc1ccc2cc3[n+](cc2c1OC)CCc1cc2c(cc1-3)OCO2 [berberine]
GPCR inhibition profile compared with rotundine (Sm.5HTR [2]): decreased potency and selectivity for Sm.5HTR

CN1CCN(C2=Nc3cc(Cl)ccc3Nc3ccccc32)CC1 [clozapine]
acute inhibition of 5-HT (10μM) response at Sm.5HTR (Sm.5HTR [2]): Inhibition of 5-HT response

CN1CCC(=C2c3ccccc3C=Cc3ccccc32)CC1 [cyproheptadine]
acute inhibition of 5-HT (10μM) response at Sm.5HTR (Sm.5HTR [2]): acutely inhibited
time to full reversal of inhibition after ligand removal (Sm.5HTR [3]; 10μM, 30 mins preincubation): ≤ 1 h

CN1C[C@H](C(=O)N[C@]2(C)O[C@@]3(O)[C@@H]4CCCN4C(=O)[C@H](Cc4ccccc4)N3C2=O)C[C@@H]2c3cccc4[nH]cc(c34)C[C@H]21 [dihydroergotamine]
EC50 (Sm.5HTR [2]; [5]): 0.315 µM
ligand type at Sm.5HTR (Sm.5HTR [2]): Agonist
Emax (Sm.5HTR [2]): 52 ± 1%
EC50 (Sm.5HTR [2]; pEC50 ± S.E.M): 0.316 µM

CN1C[C@H](C(=O)N[C@]2(C)O[C@@]3(O)[C@@H]4CCCN4C(=O)[C@H](Cc4ccccc4)N3C2=O)C=C2c3cccc4[nH]cc(c34)C[C@H]21 [ergotamine]
EC50 (Sm.5HTR [2]; [5]): 0.232 µM
ligand type at Sm.5HTR (Sm.5HTR [2]): Agonist
Emax (Sm.5HTR [2]): 78 ± 2%
EC50 (Sm.5HTR [2]; pEC50 ± S.E.M): 0.229 µM

CNCCC(Oc1ccc(C(F)(F)F)cc1)c1ccccc1 (stereo not shown) [fluoxetine]
selectivity for Sm.5HTR over Hs.5HT7R (Sm.5HTR [2]; [4]): preferential selectivity toward Sm.5HTR

CN1C[C@H](CNC(=O)OCc2ccccc2)C[C@@H]2c3cccc4c3c(cn4C)C[C@H]21 [metergoline]
ligand type at Sm.5HTR (Sm.5HTR [2]): Antagonist
Kb (Sm.5HTR [2]; Schild regression, read-out: pKB ± S.E.M (converted)): 4.57 µM
agonist efficacy at Sm.5HTR (Sm.5HTR [2]): no efficacy
acute inhibition of 5-HT (10μM) response at Sm.5HTR (Sm.5HTR [2]; drug 10μM, preincubation): Inhibition of 5-HT response
Kb (Sm.5HTR [2]; right-shift of 5-HT dose-response, read-out: KB (affinity constant, Schild regression)): 4.53 µM
inhibition of Sm.5HTR after antagonist wash-out (Sm.5HTR [3]): long-lasting inhibition

CSc1ccc2c(c1)C(N1CCN(C)CC1)Cc1ccccc1S2 (stereo not shown) [methiothepin]
acute inhibition of 5-HT (10μM) response at Sm.5HTR (Sm.5HTR [2]; drug 10μM, preincubation): antagonism of 5-HT stimulated cAMP generation; also recorded: Inhibition of 5-HT response
inhibition of Sm.5HTR after antagonist wash-out (Sm.5HTR [3]): long-lasting inhibition
potency for Sm.5HTR inhibition after washout (Sm.5HTR [3]; titration, Fig 6E): most potent

COc1cc2c(cc1OC)-c1cc3ccc(OC)c(OC)c3c[n+]1CC2 [palmatine]
GPCR inhibition profile compared with rotundine (Sm.5HTR [2]): decreased potency and selectivity for Sm.5HTR

Cc1nc2n(c(=O)c1CCN1CCC(c3noc4cc(F)ccc34)CC1)CCCC2 [risperidone]
acute inhibition of 5-HT (10μM) response at Sm.5HTR (Sm.5HTR [2]): Inhibition of 5-HT response
inhibition of Sm.5HTR after antagonist wash-out (Sm.5HTR [3]): long-lasting inhibition

COc1cc2c(cc1OC)C1CC(=O)C(CC(C)C)CN1CC2 (stereo not shown) [tetrabenazine]
potency (IC50) at Hs.5HT7R (Hs.5HT7R): supra-μM potency
potency (IC50) at Sm.5HTR (Sm.5HTR [2]): sub-μM potency
GPCR inhibition profile compared with rotundine (Sm.5HTR [2]): selectivity for Sm.5HTR retained
inhibition at 100 µM ([1]; Schistosoma mansoni, read-out: inhibition of 5-HT evoked contractility): ~50%

COc1ccc2cc1Oc1ccc(cc1)C[C@H]1c3cc(c(OC)cc3CCN1C)Oc1c(OC)c(OC)cc3c1[C@H](C2)N(C)CC3 [tetrandrine]
effect on 5-HT evoked increases in worm movement (adult schistosomes; 10μM, 5-HT 100μM): lacked an inhibitory effect
effect on basal movement of adult worms (adult schistosomes; 10μM, worms at rest): enhanced movements of isolated female worms
potency (IC50) at Hs.5HT7R (Hs.5HT7R): supra-μM potency
potency (IC50) at Sm.5HTR (Sm.5HTR [2]): sub-μM potency
IC50 ([1]; Schistosoma mansoni, read-out: IC50 (inhibition of 5-HT evoked contractions)): ≤ 1 µM
